The record followed here is patent US5849735A, “Tricyclic benzazepine vasopressin antagonists” (American Cyanamid Company, priority 1995, dated 1998).

As a reminder, the pIC50 is −log10 of the IC50, conventionally taken in molar units. A lower pIC50 goes with a high IC50.

The assay addresses T1, vasopressin V1 receptor (human platelet membranes) (Homo sapiens, UniProt P37288).
T1 construct: tissue Hudson Valley Blood Services; host or cells: human platelets (frozen platelet rich plasma)
As to the kind of experiment: Binding to Vasopressin V1 receptor subtype in Human Platelet Membranes. As to the method:
Radioligand Binding Experiments with Human Platelet Membranes
(a) Platelet Membrane Preparation
Frozen platelet rich plasma (PRP), received from the Hudson Valley Blood Services, are thawed to room temperature. (Platelet Source: Hudson Valley Blood Services, Westchester Medical Center, Valhalla, N.Y.). The tubes containing the PRP are centrifuged at 16,000×g for 10 minutes at 4° C. and the supernatant fluid discarded. The platelets resuspended in an equal volume of 50.0 mM Tris.HCL, pH 7.5 containing 120 mM NaCl and 20.0 mM EDTA. The suspension is recentrifuged at 16,000×g for 10 minutes. This washing step is repeated one more time. The wash discarded and the lysed pellets homogenized in low ionic strength buffer of Tris. HCl, […], pH 7.5 containing 5.0 mM EDTA. The homogenate is centrifuged at 39,000×g for 10 minutes. The resulting pellet is resuspended in Tris.HCl buffer, 70.0 mM, pH 7.5 and recentrifuged at 39,000×g for 10 minutes. […]
In wells of a 96 well format microtiter plate, add 100 ml of 50.0 mM Tris. […] Non specific binding is measured in the presence of 1.0 mM of unlabeled ligand (Manning or Arg^8 Vasopressin). […] The radioactivity caught on the filter disks is determined by the addition of liquid scintillant and counting in a liquid scintillator.

pIC50: −log10 of the molar value.

T1 sequence (P37288 whole entry): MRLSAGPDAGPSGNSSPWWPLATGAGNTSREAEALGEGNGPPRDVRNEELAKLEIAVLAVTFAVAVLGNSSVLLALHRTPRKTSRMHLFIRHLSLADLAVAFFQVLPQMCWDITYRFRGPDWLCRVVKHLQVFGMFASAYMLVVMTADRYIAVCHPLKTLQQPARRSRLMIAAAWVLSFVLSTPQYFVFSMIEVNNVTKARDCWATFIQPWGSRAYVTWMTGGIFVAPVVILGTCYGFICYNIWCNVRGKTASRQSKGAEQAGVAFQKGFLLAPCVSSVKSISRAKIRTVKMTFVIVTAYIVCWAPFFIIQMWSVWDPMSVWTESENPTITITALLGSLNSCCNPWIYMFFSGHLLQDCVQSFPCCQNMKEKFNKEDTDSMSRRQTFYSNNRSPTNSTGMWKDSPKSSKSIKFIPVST

As to `CCCCOc1ccc(C(=O)N2Cc3ccccc3Cc3ccccc32)cc1` [Example 24], the “V1 %” value ("(μM)" (concentration not given), 90 min) was determined as 72%. Take `O=C(c1ccc(-c2ccccc2)cc1)N1Cc2sccc2Cc2ccccc21` [Example 27, 9-([1,1'-Biphenyl]-4-ylcarbonyl)-9,10-dihydro-4H-thieno[2,3-c][1]benzazepine]: the pIC50 was 7.85.
